Experimental data as given in patent US10772944B2, “Bacterial ghosts for the treatment of cancer” (BIRD-C GMBH, priority 2016, dated 2020).

System: CT26 mouse colorectal carcinoma
Details: one cycle: BGs 4x10^8 at D4, oxaliplatin 6 mg/kg i.p. at D4, D6; harvest D18
Protocol: Treatment of mice started three days after tumor inoculation and comprised of either one or two cycles of BGs administration combined with either two or four drug administrations, respectively. Furthermore, part of mice was treated with either two or four drug administrations without the extra addition of BGs. Survival and animal behavior were monitored until the section day; animal weights were documented once per week. Tumor presence and burden were assessed at the section day including organ screening and photo documentation.
The mice were inoculated intraperitoneally (in lower left quadrant) with 1×10^5 cells of CT26 mouse colorectal carcinoma cells and randomly distributed into the seven groups (D1).
Three days after tumor inoculation (D4) the first group of animals (Group #1) received 100 μl of 5% glucose solution for injection (solvent) administered intraperitoneally at the same place as used for tumor inoculation.
Mice from Group #2.1 were injected intraperitoneally at D4 and D6 (five days after tumor inoculation) with 6 mg/kg oxaliplatin reconstituted in 100 μl of 5% glucose solution for injection at the same place as used for tumor inoculation. […]

Compound: O=C1[O][Pt]2([NH][C@@H]3CCCC[C@H]3[NH]2)[O]C1=O [oxaliplatin]
- tumor burden (weight of collected tumor tissues) versus control: tumor mass reduction detected
